± gives the expanded uncertainty stated by the source.

The conditions of data set [1]: for surface tension liquid-gas: Ring tensiometer; for mass density: 101.3 kPa, Liquid.
Data set [2] in a line: xn = mol fraction of the nth substance listed. To be noted: x2 = 0; for surface tension liquid-gas: Ring tensiometer; for mass density: 101.3 kPa, Liquid.

In the case of `COCCOCCOCCOCCOC` [2,5,8,11,14-pentaoxapentadecane], the surface tension liquid-gas (commonly the force per length acting along the surface) in data set [1] (298.15 K) stood at 33.74 ± 0.69 mN/m; in data set [1] (308.15 K) it was 32.45 ± 0.67 mN/m; in data set [1] (318.15 K) it was 31.71 ± 0.65 mN/m. The results for the mass density in data set [1] (298.15 K), in data set [1] (308.15 K) and in data set [1] (318.15 K) were 1007.26 ± 2.1 kg/m3, 997.98 ± 2.1 kg/m3 and 988.72 ± 2.1 kg/m3, respectively.

With `COCCOCCOCCOC` [2,5,8,11-tetraoxadodecane], the surface tension liquid-gas in data set [1] (298.15 K) came to 27.56 ± 0.48 mN/m; in data set [1] (308.15 K), 28.48 ± 0.5 mN/m; in data set [1] (318.15 K) it was 27.83 ± 0.49 mN/m. The mass density (in general, the mass of a sample divided by its volume) in data set [1] (298.15 K) stood at 981.23 ± 1.1 kg/m3; in data set [1] (308.15 K) it was 971.71 ± 1.1 kg/m3; in data set [1] (318.15 K), 962.19 ± 1.1 kg/m3.

In the case of `COCCOCCOC` [2,5,8-trioxanonane], the results for the surface tension liquid-gas in data set [1] (298.15 K), in data set [1] (308.15 K) and in data set [1] (318.15 K) were 24.56 ± 0.41 mN/m, 27.65 ± 0.45 mN/m and 23.44 ± 0.4 mN/m, respectively. The results for the mass density in data set [1] (298.15 K), in data set [1] (308.15 K) and in data set [1] (318.15 K) were 940.01 ± 0.83 kg/m3, 930.03 ± 0.86 kg/m3 and 919.99 ± 0.88 kg/m3, respectively.

Regarding `O` [water] + COCCOCCOC, the results for the surface tension liquid-gas in data set [2] (298.15 K), in data set [2] (308.15 K) and in data set [2] (318.15 K) were 71.37 ± 1 mN/m, 70.08 ± 1 mN/m and 69.11 ± 1 mN/m, respectively. Moreover, the mass density in data set [2] (308.15 K) was 994.06 ± 0.27 kg/m3.

Turning to `O` [water] + COCCOCCOCCOC, the surface tension liquid-gas in data set [2] (298.15 K) stood at 71.37 ± 1 mN/m; in data set [2] (308.15 K) it was 70.08 ± 1 mN/m; in data set [2] (318.15 K), 69.11 ± 1 mN/m. Further, the mass density in data set [2] (308.15 K) is 994.06 ± 0.27 kg/m3.

As to `O` [water] + COCCOCCOCCOCCOC, the surface tension liquid-gas in data set [2] (298.15 K) was found to be 71.37 ± 1 mN/m; in data set [2] (308.15 K), 70.08 ± 1 mN/m; in data set [2] (318.15 K), 69.11 ± 1 mN/m. Besides, the mass density in data set [2] (308.15 K) is on record as 994.06 ± 0.27 kg/m3.

(Values after the NIST ThermoML archive (doi:10.1021/je100757w).)
